Measured values as given in BigSolDB 2.1.

CNc1nc(C)nc(OC)n1
solubility (mole fraction)
Details | 278.15 K | 283.15 K | 288.15 K | 293.15 K | 298.15 K | 303.15 K | 308.15 K | 313.15 K | 318.15 K | 323.15 K
in DMF | 0.199 | 0.221 | 0.245 | 0.269 | 0.298 | 0.324 | 0.357 | 0.386 | 0.416 | 0.456
in ethanol | 0.0496 | 0.057 | 0.0655 | 0.0737 | 0.0818 | 0.0914 | 0.101 | 0.111 | 0.123 | 0.136
in ethylene glycol | 0.0208 | 0.0236 | 0.0273 | 0.0309 | 0.0349 | 0.039 | 0.0437 | 0.0483 | 0.0534 | 0.0597
in methanol | 0.0666 | 0.0766 | 0.0874 | 0.0983 | 0.11 | 0.123 | 0.138 | 0.152 | 0.168 | 0.185
in water | 2.58e-06 | 3.05e-06 | 3.53e-06 | 4.12e-06 | 4.73e-06 | 5.33e-06 | 5.99e-06 | 6.71e-06 | 7.57e-06 | 8.49e-06
